What follows are compounds tested on P. falciparum 3D7 growth, pLDH absorbance (assay: P. falciparum 3D7 growth inhibition, dose response, strain 3D7 (AID 2305)).

In order of rising IC50:
1. COc1ccc(Nc2ccnc3cc(-c4ccccn4)ccc23)cc1OC  30 nM
2. Cc1nc(N)nc(N)c1OCCCCOc1ccccc1  50 nM
3. Cc1[nH]c(C)c(C2CCC(c3ccc(Cl)cc3)CC2)c(=O)c1Cl (stereo not drawn)  50 nM
4. COCCNCC(O)Cn1c2ccc(Cl)cc2c2cc(Cl)ccc21 (stereo not drawn)  50 nM
5. CC(C)Oc1cc(-c2ccc(S(C)(=O)=O)cc2)nc(N(Cc2cccc(F)c2F)Cc2cccc(F)c2F)n1  120 nM
6. COC(=O)C(C)NCC(=O)c1ccccc1 (stereo not drawn)  120 nM
7. COc1ccc2nccc([C@@H](O)CN3CCC(NC(=O)C(c4cc5ccccc5o4)N4CCN(C(c5ccccc5)c5ccccc5)CC4)CC3)c2c1 (stereo partly drawn)  150 nM
8. CC(Cc1ccc(OCCN2CCN(c3cccc(C(F)(F)F)c3)CC2)cc1)NCC(O)c1cccc(C(F)(F)F)c1 (stereo not drawn)  180 nM
9. CCCCC(CCCC)CN1C(=O)C(c2ccccc2)(c2ccccc2)N=C1N  180 nM
10. COC(=O)c1cccc(CNCc2cccc(-c3ccc(-c4nc5c(C)cccc5[nH]4)s3)c2)c1  210 nM
11. CS(=O)(=O)c1cc2c(Nc3ccc(N4CCOCC4)cc3)c(C(N)=O)cnc2cc1Br  250 nM
12. Cc1cc(NCC(c2ccccc2)c2ccccc2)nc(NCc2ccc(C(F)(F)F)cc2)n1  250 nM
13. C[C@H](Cc1ccc(S(=O)(=O)c2ccc(C[C@@H](C)NC[C@H](O)c3cccc(Cl)c3)cc2)cc1)NC[C@H](O)c1cccc(Cl)c1  260 nM
14. O=C(NCc1ccccc1)Nc1cccc(-c2cccc(-c3nc4ccc(C(F)(F)F)cc4[nH]3)c2)c1  260 nM
15. c1ccc(CNc2cc(-c3ccccn3)nc(-c3ccccn3)n2)cc1  300 nM
16. Cc1ccc(NC(=O)NC2CCN(c3ccnc4cc(Cl)ccc34)CC2)cc1  320 nM
17. CCCCCCCc1ccc(-c2c(C)[nH]c(C)c(Cl)c2=O)cn1  360 nM
18. O=C(Nc1ccc(Cl)cc1C(=O)Nc1cccc(F)c1)c1ccc([N+](=O)[O-])cc1  370 nM
19. CCN(CCCN1CCCCC1)c1cc(C)nc(Nc2ccc3c(c2)CCC3)n1  390 nM
20. Cc1cc(NC2CCN(CC3CCCCC3)C2)nc(Nc2ccc(Cl)cc2)n1 (stereo not drawn)  400 nM
21. O=C(NCCc1ccccc1)N(Cc1cccc(-c2ccc(CNC3CCCC3)cc2)c1)C1CCN(Cc2ccccc2)CC1  400 nM
22. O=C1Nc2cccc3c2C1(CCCCN1CC=C(c2c[nH]c4ncccc24)CC1)CCC3 (stereo not drawn)  400 nM
23. O=C(/C=C/c1ccc(C(F)(F)F)cc1)NCCCCCN1CCCN(C(=O)Nc2ccc(Cl)c(Cl)c2)CC1  420 nM
24. O=C(OCc1ccccc1)N1CCc2c([nH]c3ccccc23)C1CCC(F)(F)F (stereo not drawn)  420 nM
25. OC(CNCc1ccccc1OCc1ccccc1)c1cccc(I)c1 (stereo not drawn)  420 nM
26. Cc1cccc(-c2nc3[nH]c(=O)cc(NC(=O)C(C)C)n3n2)c1  420 nM
27. O=C(Nc1cccc(-c2ccc(-c3nc4ccccc4[nH]3)cc2)c1)c1ccncc1  530 nM
28. Fc1ccc2nc(-c3ccc(-c4ccc(CNCc5cnn(-c6ccccc6)n5)cc4)cc3)[nH]c2c1  540 nM
29. CCN(CC)CCNc1nccc(N(C)c2ccc(NC(=O)Nc3cc(C(F)(F)F)ccc3F)cc2)n1  550 nM
30. NC(=NCc1ccc(Cl)c(Cl)c1)NC(=NCCCCCCN=C(NC(N)=NCc1ccc(Cl)c(Cl)c1)N1CCCCC1)N1CCCCC1  570 nM
31. O=C(Nc1ccc(-c2csc3nccn23)cc1)c1ccc(Cl)cc1  580 nM
32. COc1ccc(CNC2Cc3ccccc3C2)cc1-c1ccc(S(=O)(=O)NCCN2CCCC2)cc1  580 nM
33. CCOc1ccc(C(=O)Nc2ccc(-c3nc4ccccc4[nH]3)cc2)cc1[N+](=O)[O-]  590 nM
34. CCCC1N=C(N)N=C(N)N1c1cccc(C(F)(F)F)c1 (stereo not drawn)  590 nM
35. COc1cc2nc(N3CCC(NC(=O)c4cccc(N(C)C)c4)CC3)nc(N)c2cc1OC  610 nM
36. CC(=O)Nc1ccc(OCCN(Cc2ccccc2C(F)(F)F)c2ccc(C#N)c(C(F)(F)F)c2)c(Cl)c1  620 nM
37. CCCCSc1ccc(CNCCCCCCNCc2ccc(SCCCC)c3ccccc23)c2ccccc12  630 nM
38. CN(C)CCn1cc(C(=O)c2cc(Cl)ccc2O)cc1-c1nc2ccccc2c(=O)[nH]1  630 nM
39. CNc1ccc(CNCc2ccc(-c3ccc(-c4nc5c(C)cccc5[nH]4)s3)cc2)cc1  660 nM
40. COc1ccc2nccc([C@@H](O)CN3CCC(NCC(O)Cc4ccccc4)CC3)c2c1 (stereo partly drawn)  670 nM
41. COc1ccc2nccc([C@@H](O)CN3CCC(NC(=O)c4cccc(C(=O)c5ccccc5)c4)CC3)c2c1  690 nM
42. Cc1noc(-c2ccc3c(c2)CCN(CCC2CCC(NC(=O)c4cc5ccccc5[nH]4)CC2)CC3)n1 (stereo not drawn)  690 nM
43. Cn1ccnc1CNC(=O)c1ccc(-c2ccc(-c3nc4ccc(C(F)(F)F)cc4[nH]3)s2)cc1  700 nM
44. CC(C)CNCc1ccc(-c2ccc(CN(C(=O)NCCc3ccccc3)C3CCN(Cc4ccccc4)CC3)cc2)cc1  700 nM
45. CN1CCN(CC(=O)Nc2cccc(-c3ccc(-c4nc5ccc(F)cc5[nH]4)cc3)c2)CC1  700 nM
46. COc1ccc2nccc([C@@H](O)CN3CCC(NC(=O)c4ccc(OC)c(N)c4)CC3)c2c1  710 nM
47. COc1ccc(-c2ccc(NC(=O)c3cccc(Cl)c3)cc2)cc1CN1CCC(O)CC1  710 nM
48. COCCN1CCC(NCC(C)(C)c2nc(-c3ccc(Cl)c(O)c3)c(-c3ccncc3)[nH]2)CC1  720 nM
49. O=C(Nc1ccc(C(F)(F)F)cc1)c1ccc(S(=O)(=O)NC2CCN(CC3CCCCC3)CC2)cc1  730 nM
50. COc1cc2nc(N3CCC(CNC(=O)c4ccc(-c5ccc(C(=O)N(C)C)cc5)c(OCCO)c4)CC3)nc(N)c2cc1OC  730 nM
51. O=C(/C=C/c1ccc(O)cc1)NC1CCC(CN2CCC(c3c[nH]c4ccccc34)CC2)CC1 (stereo not drawn)  740 nM
52. CC(C(=O)Nc1ccc(Br)cc1Br)N1CCN(C(=O)c2ccco2)CC1 (stereo not drawn)  750 nM
53. Clc1ccc(C2CCN(CCCOc3ccc4c(c3)CCNCC4)CC2)cc1  750 nM
54. O=c1cc(-c2cccc(C(F)(F)F)c2)nc(Nc2ccc(Cl)c(Cl)c2)[nH]1  760 nM
55. CCN1CCN(Cc2ccc3nc(-c4cc(C)n(Cc5cc(Cl)ccc5OCc5ccccc5)n4)[nH]c3c2)CC1  770 nM
56. Oc1ccc(CCNCCCCCCNCCc2ccc(Cl)cc2)c(Cl)c1O  780 nM
57. Oc1ccc(-c2cc(-c3ccc(O)cc3)nc(-c3ccccc3)n2)cc1  780 nM
58. OCC1CCCCN1Cc1cccc(-c2cccc(-c3nc4ccccc4[nH]3)c2)c1 (stereo not drawn)  780 nM
59. O=C(Nc1nc2ccc(Cl)cc2s1)c1csnn1  790 nM
60. O=C(/C=C/c1ccc(Cl)cc1Cl)NC1CCC(CN2CCC(c3c[nH]c4ccccc34)CC2)CC1 (stereo not drawn)  800 nM
61. COc1ccc(-c2ccc(CNC(=O)c3cccc(C#N)c3)c(F)c2)cc1CN1CCCN(C)CC1  800 nM
62. N#Cc1cccc(NC(=O)Nc2ccc3c(c2)CN(Cc2c[nH]c4ncccc24)C3)c1  800 nM
63. CCOc1cccc(C(=O)Nc2cccc(CN3CCCN(Cc4ccc(O)cc4)CC3)c2)c1  820 nM
64. c1ccc(CNCc2cccc(-c3ccc(-c4nc5ccccc5[nH]4)s3)c2)cc1  820 nM
65. C[C@H](Cc1ccc(C(=O)OCCOC(=O)c2ccc(C[C@@H](C)NC[C@H](O)c3cccc(C(F)(F)F)c3)cc2)cc1)NC[C@H](O)c1cccc(C(F)(F)F)c1  820 nM
66. CCOc1ccc(-c2nonc2NC(=O)c2ccccc2F)cc1OCC  840 nM
67. OC1CCCN(Cc2ccc(-c3ccc(-c4nc5ccccc5[nH]4)cc3)cc2)C1 (stereo not drawn)  840 nM
68. O=C(Nc1ccc(N2CCCN(Cc3cccc(F)c3)CC2)cc1)c1ccc(F)cc1  840 nM
69. O=c1cc(NCCCNCc2ccc(Cl)c(Cl)c2)[nH]c2ccc(Oc3ccccc3)cc12  850 nM
70. Cc1cc(N2CCN(C(=O)OC(C)(C)C)CC2)ccc1N  870 nM
71. Cc1ccc(CNC(=O)c2ccc(CN3CCCN(Cc4ccsc4)CC3)cc2)cc1  870 nM
72. Cc1ccc(C2CC(c3cccs3)=NN2C(=O)c2ccc(Br)o2)cc1 (stereo not drawn)  890 nM
73. O=C(/C=C/c1ccc(Cl)c(Cl)c1)NCCCCCN1CCCC(C(=O)Nc2ccc(F)c(Cl)c2)C1 (stereo not drawn)  900 nM
74. Oc1ccc(CCNc2nc(NCCOc3cccc4ccccc34)nc(N3CCNCC3)n2)cc1  900 nM
75. O=[N+]([O-])c1ccc(NC(=NC2CCCc3ccccc32)Nc2ccccc2Br)c(O)c1 (stereo not drawn)  920 nM
76. CCCCC(NCC)c1ccc(OCCOc2ccc(C(CCCC)NCC)cc2)cc1 (stereo not drawn)  930 nM
77. CCCC(=O)Nc1ccc(OCCCN(Cc2ccccc2C(F)(F)F)c2ccc(C#N)c(C(F)(F)F)c2)cc1  930 nM
78. COc1ccc(-c2ccc(NC(=O)c3ccc(C#N)cc3)c(F)c2)cc1CN(C)CCN(C)C  970 nM
79. Cc1cccc2[nH]c(-c3ccc(-c4cccc(CNCC5CCCO5)c4)s3)nc12 (stereo not drawn)  970 nM
80. Oc1ccc2[nH]cc(C3=CCN(Cc4ccccc4)CC3)c2c1  980 nM
81. COc1cc(C=C(C2=NC(=O)CS2)c2nc3cccnc3n2C)ccc1O  1000 nM
82. CCOc1cccc(C(=O)Nc2nonc2-c2ccc(OC)c(OC)c2)c1  1020 nM
83. O=C(NCC1CCN(Cc2ccc3c(c2)OCCO3)C1)c1cc(-c2ccccc2F)cs1 (stereo not drawn)  1020 nM
84. O=C(/C=C/c1ccc(Cl)c(Cl)c1)N1CCC(NCc2c[nH]c3ccccc23)CC1  1070 nM
85. CN(CCCCCNC(=O)/C=C/c1ccc(Cl)c(Cl)c1)CCCCc1c[nH]c2ccccc12  1080 nM
86. O=C(Nc1cccc(C(F)(F)F)c1)c1ccc(S(=O)(=O)NC2CCN(CC3CCCCC3)CC2)cc1  1160 nM
87. Cc1cnc(Nc2ccccc2)nc1NCCC(=O)Nc1ccccc1  1160 nM
88. O=C(CSc1nc2ccc([N+](=O)[O-])cc2s1)Nc1ccccc1-c1ccccc1  1170 nM
89. O=C(/C=C/c1ccc(Cl)c(Cl)c1)N1CCC(CNCc2cccc3cc[nH]c23)CC1  1220 nM
90. CC(C)COc1ccc(Cl)cc1Cc1ccc(-c2nc3c(cnc4ccccc43)[nH]2)o1  1260 nM
91. CC(NC(=O)c1cc(-c2ccccc2)nc2c1cnn2C(C)C)C1CC1 (stereo not drawn)  1280 nM
92. COc1ccccc1C1CN(Cc2coc3ccccc3c2=O)Cc2ccccc2O1 (stereo not drawn)  1320 nM
93. Cc1cc(N[C@@H](Cc2ccccc2)C(=O)Nc2ccccc2)nc(NCCc2cccnc2)n1  1340 nM
94. N#Cc1ccc(C(=O)Nc2cc(-c3cccc(O)c3)cc3[nH]ncc23)cc1  1370 nM
95. CC(=O)Nc1ccc(OCCCCN(Cc2ccccc2C(F)(F)F)c2ccc(C#N)c(C(F)(F)F)c2)cc1  1390 nM
96. c1ccc(CSC2=NNC(c3ccccn3)S2)cc1 (stereo not drawn)  1480 nM
97. O=C(NCCCCN1CCC(c2ccc3c(c2OCCN2CCCC2=O)CCCC3)CC1)c1ccc(-c2ccc(C(F)(F)F)cc2)cc1  1520 nM
98. NC(=NCCc1ccccc1Cl)c1ccc2ccccc2c1  1630 nM

— PubChem BioAssay AID2305 (GlaxoSmithKline (GSK), 2010)
